Source: US5506268A, “Use of isovaleramide as a mild anxiolytic and sedative agent” (priority 1993, dated 1996)
≈ marks a conversion by molar mass, not a printed value. Where “and” joins values, the source holds several entries; their conditions need not be identical. Identical values can stand only once. Entries after “also recorded” stand apart in the source; their conditions may differ. Like-named read-outs stand apart in the source and are kept apart here.

Legend:
male rats [1] = assay: Spontaneous locomotor activity measured electronically (sedative effect); format: in vivo, rat; conditions: for relative potency as strong sedative-hypnotic agent, valnoctamide versus isovaleramide: FIG. 3
Excerpt: General sedative effects can also be measured electronically by recording drug-induced decreases in spontaneous locomotor activity in treated experimental animals, as shown in FIG. 3.

[2] = cited from earlier work
[3] = system: aggressive experimental animals and anxious humans; conditions: cited from earlier work
male mice [4] = conditions: Roszkowski and Govier 1962; cited from earlier work
male rats [5] = assay: Hypnotic activity (loss of the righting reflex) in rats; conditions: Rattus norvegicus, ip, read-out: hypnotic dose
Method: Hypnotic activity was assessed by simply determining the doses of the test substances (administered by IP injection) sufficient to cause a loss of the righting reflex (see above) and an apparent loss of consciousness and responsiveness.

BCA-1 = assay: In vitro cytotoxicity (cell growth inhibition), BCA-1; format: cell-based, human and murine; conditions: read-out: EC50 (concentration that inhibited cell growth by 50%)
Method: (§1) The valepotriate compounds valtrate, didrovaltrate and acevaltrate were compared with isovaleramide with respect to their effects on various human and murine tumor cell lines. The cells at log-phase growth were treated with various concentrations of test substances for 48 hr. Growth rates were then determined by directly counting cell numbers or by protein determination. EC50 is the effective concentration of test substance that inhibited cell growth by 50%.

COL-2 = assay: In vitro cytotoxicity (cell growth inhibition), COL-2; format: cell-based, human and murine; conditions: Homo sapiens, read-out: EC50 (concentration that inhibited cell growth by 50%)
Method: as §1

HT-1080 = assay: In vitro cytotoxicity (cell growth inhibition), HT-1080; format: cell-based, human and murine; conditions: Homo sapiens, read-out: EC50 (concentration that inhibited cell growth by 50%)
Method: as §1

LUC-1 = assay: In vitro cytotoxicity (cell growth inhibition), LUC-1; format: cell-based, human and murine; conditions: read-out: EC50 (concentration that inhibited cell growth by 50%)
Method: as §1

KB = assay: In vitro cytotoxicity (cell growth inhibition), KB; format: cell-based, human and murine; conditions: Homo sapiens, read-out: EC50 (concentration that inhibited cell growth by 50%)
Method: as §1

KB-V1 = assay: In vitro cytotoxicity (cell growth inhibition), KB-V1; format: cell-based, human and murine; conditions: Homo sapiens, read-out: EC50 (concentration that inhibited cell growth by 50%)
Method: as §1

MEL-2 = assay: In vitro cytotoxicity (cell growth inhibition), MEL-2; format: cell-based, human and murine; conditions: read-out: EC50 (concentration that inhibited cell growth by 50%)
Method: as §1

P388 = assay: In vitro cytotoxicity (cell growth inhibition), P388; format: cell-based, human and murine; conditions: Mus musculus, read-out: EC50 (concentration that inhibited cell growth by 50%)
Method: as §1

male Sprague-Dawley rats [6] = assay: Vogel Conflict (anxiolytic) Assay, punished licks; format: in vivo, rat; conditions: for anxiolytic activity in Vogel Conflict Assay: comparable dose levels (500-1000 mg/kg)
Excerpt: In the Vogel Conflict Paradigm, thirsty rats are given mild electric shocks through a metal water dispenser when they try to drink. The shock is unpleasant, but not severe enough to cause overt pain. When administered anxiolytic drugs, the rats lick the dispenser more often than controls. Assessment of anxiolytic effects is thus measured as an increased number of licks.
Animals (male Sprague-Dawley rats, 250-300 g) are deprived of water for 24 hr and are then placed into a clear Plexiglass box (45 cm×25 cm×20 cm) which rests on a grid of stainless steel bars. A circuit between the grid bars and the drinking spout is established with a silver electrode in a drinking bottle placed in the chamber. The animals are allowed to lick the water dispenser for 5 min without shock; those animals that fail to lick are excluded from further study.
The animals are returned to the home colony and are again deprived of water for 24 hr and replaced in the chamber and allowed to lick for 1 min without shock. Then a 1 milliamp current (shock) is maintained for 4 min at the drinking spout. Only the animals showing 50% suppression in licking behavior compared to the first session are included in further testing.
The test substances are injected intraperitoneally (IP) after this session, and 30 min later the animals are again placed into the chamber. Again the animals are allowed to lick without shock for 1 min and the shock is instituted for the remaining 4 min. The number of punished licks during this time is used to assess anxiolytic activity.
The "anxiolytic index" is defined as the ratio of the number of punished licks of test animals to that of control animals during a 4-min period. An anxiolytic index greater than one indicates anxiolytic ("calmative") activity. In practice, it is considered that significant "calmative" activity is observed when the anxiolytic index is greater than 1.5.
Male Sprague-Dawley rats (250-300 g) were deprived of water for 24 hours before testing. The animals were allowed one five-minute period of drinking in the experimental chamber before receiving the test substances at the indicated doses. Thirty minutes later, the animals were returned to the chamber and allowed to drink for one minute without punishment. For the remaining four minutes, a shock was delivered to the drinking spout and the number of punished licks was recorded. Four or five animals were tested in each group.

male mice [7] = assay: Hypnotic activity (loss of the righting reflex) in mice; format: in vivo; conditions: Mus musculus, ip
male mice [8] = assay: Direct observation of sedation / general activity level; format: in vivo, mouse; conditions: for minimal effective dose: Mus musculus, mice, IP; for observed sedative effects: male mice
Method: Sedative activity elicited by a test substance can be observed directly in experimental animals by a decrease in spontaneous locomotor activity, e.g., in open-field observation experiments. In such experiments, test animals are administered the test substance (usually by IP injection) and, after a suitable waiting period (usually 5-30 min), are placed into an open-field test chamber, which consists of a transparent plastic box with a clearly visible grid painted on the bottom (or floor). The numbers of excursions across the floor grids are then counted over a specified time period (usually 1-3 hours) and are subsequently compared with the numbers obtained from similarly treated saline controls. The number of grid crossings counted gives a direct measurement of the general activity level (measured as spontaneous locomotor activity) of each test animal in question. Sedative activity can be expressed as a percentage of the control level of spontaneous locomotor activity as measured by grid crossings per unit time.

[9] = Acute toxicity (LD50) and therapeutic index; format: in vivo; conditions: mouse, in vivo; mice, IP
Method: (§2) Convulsant activity was tested for N,N-diethylisovaleramide and isovaleramide itself. The potential for CNS-stimulating and convulsant properties was assessed by administering appropriate doses of the test substances IP to rodents (male mice and rats). […] At the highest dose of isovaleramide tested (4000 mg/kg IP), some deaths resulted among the test animals (male mice) after sleeping for several days, apparently from respiratory depression. […] Further testing of isovaleramide at still higher dose levels was precluded by its solubility limits and the consequently overly large injection volumes required.

male mice [10] = assay: Acute toxicity (LD50) and therapeutic index; format: in vivo; conditions: male mice, 4000 mg/kg IP
Method: as §2

[11] = system: various human and murine tumor cell lines; assay: Cytotoxicity summary over tumor cell lines; format: cell-based; conditions: summary of Table 1
Method: as §1

hepatic porphyria = conditions: literature; cited from earlier work
[12] = in vivo; cited from earlier work
experimental animals = conditions: cited from earlier work; for narcotic and hypnotic effects: experimental animals
male mice [13] = conditions: mouse, in vivo, ip
Method: as §2

rats = conditions: rat, in vivo
Method: as §2

male Sprague-Dawley rats [14] = conditions: injected at therapeutically effective doses; cited from earlier work

CCC(C)C(CC)C(N)=O (racemic) [valnoctamide]
relative potency as strong sedative-hypnotic agent, valnoctamide versus isovaleramide (male rats [1]): about ten times more potent than isovaleramide | water solubility [2]: very water insoluble | tranquilizing and anxiety-reducing properties [3]: purported to exhibit tranquilizing and anxiety-reducing properties | therapeutic index (male mice [4]): ~11.4 | minimal effective dose (male rats [5]): 250 mg/kg and 1750 µmol/kg

CC(=O)OCC1=CO[C@@H](OC(=O)CC(C)C)[C@H]2C1=C[C@H](OC(=O)CC(C)(C)OC(C)=O)[C@]21CO1 [Acevaltrate]
EC50 (BCA-1; BCA1, BCA-1, 48 hr): 1.94 µg/mL (≈ 4.04 µM) | EC50 (COL-2; Col2, COL-2, 48 hr): 2.89 µg/mL (≈ 6.01 µM) | EC50 (HT-1080; HT-1080, 48 hr): 2.05 µg/mL (≈ 4.27 µM) | EC50 (LUC-1; LUC1, LUC-1, 48 hr): 4.3 µg/mL (≈ 8.95 µM) | EC50 (KB; 48 hr): 2.7 µg/mL (≈ 5.62 µM) | EC50 (KB-V1; KB-V1, 48 hr): 2.26 µg/mL (≈ 4.7 µM) | EC50 (MEL-2; MEL2, MEL-2, 48 hr): 0.75 µg/mL (≈ 1.56 µM) | EC50 (P388; P388, 48 hr): 0.88 µg/mL (≈ 1.83 µM)

CC(=O)O[C@H]1C[C@@H]2C(COC(=O)CC(C)C)=CO[C@@H](OC(=O)CC(C)C)[C@@H]2[C@@]12CO2 [Didrovaltrate]
EC50 (BCA-1; BCA1, BCA-1, 48 hr): 0.7 µg/mL (≈ 1.65 µM) | EC50 (COL-2; Col2, COL-2, 48 hr): 1.49 µg/mL (≈ 3.51 µM) | EC50 (HT-1080; HT-1080, 48 hr): 0.7 µg/mL (≈ 1.65 µM) | EC50 (LUC-1; LUC1, LUC-1, 48 hr): 2.91 µg/mL (≈ 6.86 µM) | EC50 (KB; 48 hr): 2.03 µg/mL (≈ 4.78 µM) | EC50 (KB-V1; KB-V1, 48 hr): 1.29 µg/mL (≈ 3.04 µM) | EC50 (MEL-2; MEL2, MEL-2, 48 hr): 0.42 µg/mL (≈ 0.989 µM) | EC50 (P388; P388, 48 hr): 0.19 µg/mL (≈ 0.448 µM)

CC(C)CC(N)=O [Isovaleramide, isovaleramide]
EC50 (BCA-1; BCA1, 48 h): > 20 µg/mL | EC50 (COL-2; Col2, 48 h): > 20 µg/mL | EC50 (HT-1080; HT-1080, 48 h): > 20 µg/mL | EC50 (LUC-1; LUC1, 48 h): > 20 µg/mL | EC50 (KB; 48 h): > 20 µg/mL | EC50 (KB-V1; KB-V1, 48 h): > 20 µg/mL | EC50 (MEL-2; MEL2, 48 h): > 20 µg/mL | EC50 (P388; P388, 48 h): > 20 µg/mL | increase in the number of punished licks over controls (male Sprague-Dawley rats [6]; IP, 500-1000 mg/kg): approximate three-fold increase | minimal effective dose (male mice [7]; mice, IP, not hypnotic even at 1000 mg/kg, hypnotic at 2000 mg/kg, read-out: hypnotic dose): > 1000 mg/kg | minimal effective dose (male mice [7]; mice, IP, not hypnotic even at this dose, read-out: hypnotic dose): > 9900 µmol/kg | minimal effective dose (male mice [7]; very large doses approaching toxic dose levels, read-out: dose producing hypnosis): > 1000 mg/kg | decrease in spontaneous locomotor activity (male rats [1]; 250 mg/kg IP): decreased locomotor activity to a level comparable to that induced by valnoctamide at 25 mg/kg | decrease in spontaneous locomotor activity (male rats [1]; 500 mg/kg IP): comparable to that induced by valnoctamide at 50 mg/kg IP | relative potency as strong sedative-hypnotic agent, valnoctamide versus isovaleramide (male rats [1]): only about one-tenth of the potent sedative-hypnotic properties exhibited by valnoctamide | minimal effective dose (male mice [8]; naive observers, read-out: dose at which naive observers distinguish treated mice from saline controls): 250 mg/kg | minimal effective dose (male mice [8]; very astute observers, read-out: dose at which very astute observers distinguish treated mice from controls): 100 mg/kg | observed sedative effects (male mice [8]; 1000 mg/kg IP): clearly sedentary | observed sedative effects (male mice [8]; 500 and 1000 mg/kg IP): much more pronounced | LD50 [9]: > 4000 mg/kg | selectivity ratio [9]: ~40 | survival (male mice [10]): more than half of the experimental animals survived | mortality (male mice [10]; after sleeping for several days): some deaths | cytotoxicity [11]: no cytotoxicity | water solubility [2]: essentially water soluble | hepatic porphyria-inducing properties (hepatic porphyria): no hepatic porphyria-inducing properties | anticonvulsant properties [12]: no anticonvulsant properties | clinical usefulness as a hypnotic (experimental animals; Impens 1912, Junkmann 1937): clinically useless as a hypnotic | narcotic and hypnotic effects (experimental animals): narcotic and hypnotic effects in experimental animals when administered in very high doses; also recorded: hypnotic activity only when administered to experimental animals in very high doses

CC(C)CC(=O)O [Isovaleric acid]
narcotic and hypnotic effects (experimental animals): narcotic and hypnotic effects in experimental animals when administered in very high doses

CCN(CC)C(=O)CC(C)C [N,N-Diethylisovaleramide, N,N-diethylisovaleramide]
dose with CNS-stimulating (excitant) activity (male Sprague-Dawley rats [6]; Vogel assay (FIG. 2)): 50 mg/kg | dose causing death following convulsive seizures (male mice [13]): 500 mg/kg | dose with potent CNS-stimulating and convulsant properties (male mice [13]): 250 mg/kg | CNS-stimulating, anxiogenic and convulsant properties (rats): CNS-stimulating, anxiogenic, and convulsant properties | dose at which potent convulsant (rats; ip): 250 mg/kg

CC(=O)OCC1=CO[C@@H](OC(=O)CC(C)C)[C@H]2C1=C[C@H](OC(=O)CC(C)C)[C@]21CO1 [Valtrate]
EC50 (BCA-1; BCA1, 48 h): 0.41 µg/mL (≈ 0.97 µM) | EC50 (COL-2; Col2, 48 h): 0.59 µg/mL (≈ 1.4 µM) | EC50 (HT-1080; HT-1080, 48 h): 0.41 µg/mL (≈ 0.97 µM) | EC50 (LUC-1; LUC1, 48 h): 2 µg/mL (≈ 4.73 µM) | EC50 (KB; 48 h): 0.51 µg/mL (≈ 1.21 µM) | EC50 (KB-V1; KB-V1, 48 h): 0.72 µg/mL (≈ 1.7 µM) | EC50 (MEL-2; MEL2, 48 h): 0.39 µg/mL (≈ 0.923 µM) | EC50 (P388; P388, 48 h): 0.06 µg/mL (≈ 0.142 µM)

CN1C(=O)CN=C(c2ccccc2)c2cc(Cl)ccc21 [diazepam]
increase in the number of licks (male Sprague-Dawley rats [14]): ten-fold increase

CCCC(N)=O [n-Butyramide]
anxiolytic activity in Vogel Conflict Assay (male Sprague-Dawley rats [6]; IP): no significant anxiolytic activity

OC[C@H]1O[C@@](CO)(O[C@H]2O[C@H](CO)[C@@H](O)[C@H](O)[C@H]2O)[C@@H](O)[C@@H]1O [sucrose]
anxiolytic activity in Vogel Conflict Assay (male Sprague-Dawley rats [6]; IP): no significant anxiolytic activity
